# According to patent publication US20060046972A1, “Cytotoxic nucleoside analog compound 003 for treating cancer” (Parker Hughes Institute, priority 2004, published 2006):
# Test: Acute toxicity of intraperitoneal bolus doses in CD-1 mice
# Type: in vivo
# Conditions: female, CD-1, mouse, in vivo, ip; single i.p. bolus; not reached at highest dose
# Experimental: 1.2.8 Animals Female CD-1 mice (Body weight: ˜25 g; Age: 7 week old) were purchased, from Charles River Laboratories (Willmington, Mass., USA). MMTV Neu-mice [FVB/N-TgN(MMTV neu)202MUL; Jackson Laboratory, Bar Harbor, Me.] were bred to produce multiple litters. All mice were housed in microisolator cages (Lab Products, Inc., Maywood, N.Y., USA) containing autoclaved bedding in a controlled specific pathogen-free (SPF) environment (12-h light/12-h dark photoperiod, 22±1° C., 60±10% relative humidity), which is fully accredited by the USDA (United States Department of Agriculture). Adult male Lewis rats (Body weight: ˜160 g) were obtained from the specific pathogen-free (SPF) breeding facilities of Harlan Sprague Dawley (Indianapolis, Id., USA) at 14 weeks of age. All husbandry and experimental contact made with the mice and rats maintained SPF conditions. The rats were kept in microisolater cages (Allentown Caging Equipment Co., Inc., Allentown, N.J., USA) containing autoclaved food, water, and bedding. Animal studies were approved by Parker Hughes Institute Animal Care and Use Committee and all animal care procedures 1.5 conformed to the Guide for the Care and Use of Laboratory Animals (National Research Council, National Academy Press, Washington D.C. 1996, USA).
# The toxicity profile of Compound 003 in CD-1 mice and Lewis rats was examined, using standard procedures as previously reported for other experimental drugs (Uckun, et al., 2003, Arzneimittelforschun. 53:357; Uckun, et al., 2002, Clin Cancer Res. 8: 1224; Uckun, et al., 2002, Antimicrob Agents Chemother. 46:3428). In brief, mice and rats were treated with intraperitoneal injections of vehicle or Compound 003 at multiple dose levels. Compound 003 was administered as a 0.2 mL (for mice) or 0.5 mL (for rats) bolus injection containing 10% DMSO as a vehicle. Animals were allowed free access to autoclaved standard pellet food and tap water throughout the experiments and monitored daily for morbidity and mortality. Animals were electively sacrificed on day 7 or day 30 to determine the toxicity of Compound 003 by examining their blood chemistry profiles, blood counts, and evaluating multiple organs for the presence of toxic lesions. Blood was collected by intracardiac puncture following anesthesia with ketamine:xylazine and immediately heparinized. The blood chemistry profiles were examined using a Synchron CX5CE Chemical Analyzer (Beckman Instruments, Inc., Fullerton, Calif., USA). Blood counts (red blood cells [RBC], white blood cells [WBC] and platelets [Plt]) were determined using a HESKA Vet ABC-Diff Hematology Analyzer (HESKA Corporation, Fort Collins, Colo., USA). Absolute neutrophil counts (ANC) and absolute lymphocyte counts (ALC) were calculated from WBC values after determining the percentages of neutrophils and lymphocytes by a manual differential count. At the time of necropsy, […] from mice (bone, bone marrow, brain, cecum, heart, kidney, large intestine, liver, lung, lymph node, ovary, pancreas, skeletal muscle, skin, small intestine, spleen, stomach, thymus, thyroid gland, urinary bladder, and uterus, as available) and 21 different tissues from rats (bone, bone marrow, brain, coagulating gland, epididymis, heart, large intestine, small intestine, kidney, liver, lung, pancreas, peripheral nerve/spinal nerve, skeletal muscle, skin, spinal cord, spleen, stomach, testes, thymus, urinary bladder) were collected within 15 minutes after sacrifice, gross pathological findings were documented, organs were preserved in 10% neutral phosphate buffered formalin, and processed for histopathological examination. For histopathologic studies, formalin fixed tissues were dehydrated and embedded in paraffin by routine methods. Glass slides with affixed 4-5 micron tissue sections were prepared and stained with Hemotoxylin and Eosin (H&E). […]
smiles,measurement,value
"COC(=O)C(C)NP(=O)(OCC1OC(n2cc(C)c(=O)[nH]c2=O)CC1N=[N+]=[N-])Oc1ccc(OC)cc1 (stereo not shown) [Compound 003, 3′-azidothymidine 5′-[p-methoxyphenylmethoxyalaninyl phosphate]]",LD50,> 80 mg/kg
